This passage reports MIC results from ChEMBL document CHEMBL3045157, “Synthesis and evaluation of in vitro antitubercular activity and antimicrobial activity of some novel 4H-chromeno[2,3-d]pyrimidine via 2-amino-4-phenyl-4H-chromene-3-carbonitriles” (2011).

Values after ≈ are worked out from the molar mass of the structure shown.

Format in all cases: functional
Assay [1] relates to Mycobacterium tuberculosis. Briefly: Antitubercular activity against Mycobacterium tuberculosis H37Rv by agar microdilution method.
In another assay the test system is Aspergillus niger. Briefly: Antifungal activity against Aspergillus niger MTCC 282 after 24 hr by serial dilution method.
The test system of a further assay is Staphylococcus aureus. Put plainly: Antibacterial activity against Staphylococcus aureus ATCC 25923 after 24 hr by serial dilution method. Conditions: ATCC 25923, 24 h.
The test system of a further assay is Pseudomonas aeruginosa. Put plainly: Antibacterial activity against Pseudomonas aeruginosa MTCC 441 after 24 hr by serial dilution method. Conditions: MTCC 441, 24 h.
For another assay, the system named is Streptococcus pyogenes. Put plainly: Antibacterial activity against Streptococcus pyogenes MTCC 443 after 24 hr by serial dilution method. Conditions: MTCC 443, 24 h.
The subject of another assay is Escherichia coli. Put plainly: Antibacterial activity against Escherichia coli ATCC 25922 after 24 hr by serial dilution method. Conditions: ATCC 25922, 24 h.

Turning to `Nc1nc(=S)[nH]c2c1C(c1ccccc1)c1ccccc1O2` (stereo not given), the MIC in assay [1] is 500 µg/mL (≈ 1630 µM); against Aspergillus niger (MTCC 282, 24 h), 125 µg/mL (≈ 407 µM); against Staphylococcus aureus, 250 µg/mL (≈ 813 µM); against Pseudomonas aeruginosa, 125 µg/mL (≈ 407 µM); against Streptococcus pyogenes, 250 µg/mL (≈ 813 µM); against Escherichia coli it was 125 µg/mL (≈ 407 µM).
With `S=c1[nH]c2c(c(=S)[nH]1)C(c1ccccc1)c1ccc3cccnc3c1O2` (stereo not given), the minimal inhibitory concentration (MIC) was 200 µg/mL (≈ 533 µM) in assay [1]; 500 µg/mL (≈ 1330 µM) in the assay with Aspergillus niger (MTCC 282, 24 h); 62.5 µg/mL (≈ 166 µM) with Staphylococcus aureus; 125 µg/mL (≈ 333 µM) in the assay with Pseudomonas aeruginosa; 62.5 µg/mL (≈ 166 µM) in the assay on Streptococcus pyogenes; 125 µg/mL (≈ 333 µM) in the assay with Escherichia coli.
Regarding `Nc1nc(=S)[nH]c2c1C(c1ccccc1)c1ccc(O)cc1O2` (stereo not given), the MIC in assay [1] was 500 µg/mL (≈ 1550 µM); in the assay on Aspergillus niger (MTCC 282, 24 h) it was 125 µg/mL (≈ 387 µM); against Staphylococcus aureus, 500 µg/mL (≈ 1550 µM); with Pseudomonas aeruginosa, 125 µg/mL (≈ 387 µM); against Streptococcus pyogenes, 250 µg/mL (≈ 773 µM); in the assay with Escherichia coli, 250 µg/mL (≈ 773 µM).
For the compound `O=C(O)c1cn(C2CC2)c2cc(N3CCNCC3)c(F)cc2c1=O` [CIPROFLOXACIN], the values for the minimal inhibitory concentration (MIC) with Staphylococcus aureus, in the assay with Streptococcus pyogenes and in the assay on Escherichia coli were 50 µg/mL (≈ 151 µM), 50 µg/mL (≈ 151 µM) and 25 µg/mL (≈ 75.4 µM), respectively.
For the compound `Nc1nc(=O)[nH]c2c1C(c1ccccc1)c1ccc(O)cc1O2` (stereo not given), the minimal inhibitory concentration (MIC) turned out to be 125 µg/mL (≈ 407 µM) in assay [1]; 250 µg/mL (≈ 814 µM) in the assay on Aspergillus niger (MTCC 282, 24 h); 125 µg/mL (≈ 407 µM) against Staphylococcus aureus; 125 µg/mL (≈ 407 µM) in the assay on Pseudomonas aeruginosa; 250 µg/mL (≈ 814 µM) against Streptococcus pyogenes; 250 µg/mL (≈ 814 µM) with Escherichia coli.
Regarding `Nc1nc(=S)[nH]c2c1C(c1ccccc1)c1ccc3ccccc3c1O2` (stereo not given), the MIC in assay [1] amounted to 1000 µg/mL (≈ 2800 µM); with Aspergillus niger (MTCC 282, 24 h), 1000 µg/mL (≈ 2800 µM); against Staphylococcus aureus, 500 µg/mL (≈ 1400 µM); in the assay with Pseudomonas aeruginosa it was 125 µg/mL (≈ 350 µM); against Streptococcus pyogenes, 500 µg/mL (≈ 1400 µM); in the assay with Escherichia coli, 500 µg/mL (≈ 1400 µM).
As to NYSTATIN, 100 µg/mL was the least that counted as inhibitory against Aspergillus niger (MIC).
Turning to `S=c1[nH]c2c(c(=S)[nH]1)C(c1ccccc1)c1ccccc1O2` (stereo not given), the MIC is 500 µg/mL (≈ 1540 µM) in assay [1]; 1000 µg/mL (≈ 3080 µM) in the assay on Aspergillus niger (MTCC 282, 24 h); 500 µg/mL (≈ 1540 µM) against Staphylococcus aureus; 250 µg/mL (≈ 771 µM) in the assay with Pseudomonas aeruginosa; 500 µg/mL (≈ 1540 µM) in the assay with Streptococcus pyogenes; 250 µg/mL (≈ 771 µM) with Escherichia coli.
Consider `O=c1[nH]cnc2c1C(c1ccccc1)c1ccccc1O2` (stereo not given), for which the MIC in assay [1] is 500 µg/mL (≈ 1810 µM); against Aspergillus niger (MTCC 282, 24 h) it was 500 µg/mL (≈ 1810 µM); against Staphylococcus aureus it was 250 µg/mL (≈ 905 µM); against Pseudomonas aeruginosa, 250 µg/mL (≈ 905 µM); with Streptococcus pyogenes, 500 µg/mL (≈ 1810 µM); against Escherichia coli, 250 µg/mL (≈ 905 µM).
For `Nc1nc(=O)[nH]c2c1C(c1ccccc1)c1ccccc1O2` (stereo not given), the MIC in assay [1] came out at 500 µg/mL (≈ 1720 µM); against Aspergillus niger (MTCC 282, 24 h) it was 500 µg/mL (≈ 1720 µM); in the assay with Staphylococcus aureus, 125 µg/mL (≈ 429 µM); against Pseudomonas aeruginosa, 62.5 µg/mL (≈ 215 µM); against Streptococcus pyogenes, 125 µg/mL (≈ 429 µM); against Escherichia coli, 62.5 µg/mL (≈ 215 µM).
Turning to `S=c1[nH]c2c(c(=S)[nH]1)C(c1ccccc1)c1c(ccc3ccccc13)O2` (stereo not given), the MIC was 100 µg/mL (≈ 267 µM) in assay [1]; 500 µg/mL (≈ 1340 µM) in the assay on Aspergillus niger (MTCC 282, 24 h); 125 µg/mL (≈ 334 µM) in the assay with Staphylococcus aureus; 125 µg/mL (≈ 334 µM) in the assay with Pseudomonas aeruginosa; 250 µg/mL (≈ 668 µM) in the assay on Streptococcus pyogenes; 250 µg/mL (≈ 668 µM) against Escherichia coli.
As for `O=c1[nH]cnc2c1C(c1ccccc1)c1ccc3cccnc3c1O2` (stereo not given), the minimum inhibitory concentration (MIC) in assay [1] is 500 µg/mL (≈ 1530 µM); with Aspergillus niger (MTCC 282, 24 h) it was 500 µg/mL (≈ 1530 µM); in the assay on Staphylococcus aureus, 125 µg/mL (≈ 382 µM); against Pseudomonas aeruginosa it was 125 µg/mL (≈ 382 µM); against Streptococcus pyogenes, 250 µg/mL (≈ 764 µM); in the assay on Escherichia coli it was 250 µg/mL (≈ 764 µM).
On to `COC1=CC(=O)C[C@@H](C)[C@]12Oc1c(Cl)c(OC)cc(OC)c1C2=O` [GRISEOFULVIN], for which, in the assay with Aspergillus niger (MTCC 282, 24 h), the MIC was 100 µg/mL (≈ 283 µM).
`Nc1nc(=S)[nH]c2c1C(c1ccccc1)c1c(ccc3ccccc13)O2` (stereo not given): the minimum inhibitory concentration (MIC) in assay [1] is 1000 µg/mL (≈ 2800 µM); in the assay on Aspergillus niger (MTCC 282, 24 h), 1000 µg/mL (≈ 2800 µM); against Staphylococcus aureus it was 250 µg/mL (≈ 699 µM); against Pseudomonas aeruginosa, 500 µg/mL (≈ 1400 µM); in the assay on Streptococcus pyogenes it was 500 µg/mL (≈ 1400 µM); in the assay with Escherichia coli it was 500 µg/mL (≈ 1400 µM).
Take `O=c1[nH]cnc2c1C(c1ccccc1)c1ccc3ccccc3c1O2` (stereo not given): the MIC in assay [1] is 125 µg/mL (≈ 383 µM); in the assay with Aspergillus niger (MTCC 282, 24 h) it was 1000 µg/mL (≈ 3060 µM); with Staphylococcus aureus, 62.5 µg/mL (≈ 192 µM); in the assay with Pseudomonas aeruginosa, 250 µg/mL (≈ 766 µM); against Streptococcus pyogenes, 62.5 µg/mL (≈ 192 µM); in the assay on Escherichia coli it was 125 µg/mL (≈ 383 µM).
Regarding `S=c1[nH]c2c(c(=S)[nH]1)C(c1ccccc1)c1ccc3ccccc3c1O2` (stereo not given), the MIC in assay [1] was determined as 500 µg/mL (≈ 1340 µM); in the assay on Aspergillus niger (MTCC 282, 24 h) it was 500 µg/mL (≈ 1340 µM); in the assay with Staphylococcus aureus, 125 µg/mL (≈ 334 µM); against Pseudomonas aeruginosa it was 250 µg/mL (≈ 668 µM); against Streptococcus pyogenes it was 250 µg/mL (≈ 668 µM); in the assay with Escherichia coli, 250 µg/mL (≈ 668 µM).
Consider `CO[C@H]1/C=C/O[C@@]2(C)Oc3c(C)c(O)c4c(O)c(c(/C=N/N5CCN(C)CC5)c(O)c4c3C2=O)NC(=O)/C(C)=C\C=C\[C@H](C)[C@H](O)[C@@H](C)[C@@H](O)[C@@H](C)[C@H](OC(C)=O)[C@@H]1C` [RIFAMPIN], for which the MIC in assay [1] was 40 µg/mL (≈ 48.6 µM).
On to `Nc1nc(=O)[nH]c2c1C(c1ccccc1)c1ccc3cccnc3c1O2` (stereo not given), for which the MIC in assay [1] is 125 µg/mL (≈ 365 µM); in the assay with Aspergillus niger (MTCC 282, 24 h), 250 µg/mL (≈ 730 µM); with Staphylococcus aureus, 125 µg/mL (≈ 365 µM); against Pseudomonas aeruginosa, 500 µg/mL (≈ 1460 µM); against Streptococcus pyogenes it was 125 µg/mL (≈ 365 µM); against Escherichia coli it was 500 µg/mL (≈ 1460 µM).
Regarding `Nc1nc(=O)[nH]c2c1C(c1ccccc1)c1ccc3ccccc3c1O2` (stereo not given), the MIC in assay [1] worked out at 1000 µg/mL (≈ 2930 µM); against Aspergillus niger (MTCC 282, 24 h), 500 µg/mL (≈ 1460 µM); against Staphylococcus aureus, 125 µg/mL (≈ 366 µM); against Pseudomonas aeruginosa it was 250 µg/mL (≈ 732 µM); in the assay with Streptococcus pyogenes, 125 µg/mL (≈ 366 µM); against Escherichia coli, 500 µg/mL (≈ 1460 µM).
Regarding `Nc1nc(=O)[nH]c2c1C(c1ccccc1)c1c(ccc3ccccc13)O2` (stereo not given), the MIC in assay [1] was 250 µg/mL (≈ 732 µM); in the assay with Aspergillus niger (MTCC 282, 24 h), 250 µg/mL (≈ 732 µM); in the assay on Staphylococcus aureus, 62.5 µg/mL (≈ 183 µM); against Pseudomonas aeruginosa, 500 µg/mL (≈ 1460 µM); with Streptococcus pyogenes, 62.5 µg/mL (≈ 183 µM); with Escherichia coli, 250 µg/mL (≈ 732 µM).
Regarding `CC1(C)S[C@@H]2[C@H](NC(=O)[C@H](N)c3ccccc3)C(=O)N2[C@H]1C(=O)O` [AMPICILLIN], the minimal inhibitory concentration (MIC) with Staphylococcus aureus came to 100 µg/mL (≈ 286 µM); in the assay with Pseudomonas aeruginosa, 100 µg/mL (≈ 286 µM); in the assay with Streptococcus pyogenes, 250 µg/mL (≈ 715 µM); with Escherichia coli it was 100 µg/mL (≈ 286 µM).
`O=c1[nH]cnc2c1C(c1ccccc1)c1c(ccc3ccccc13)O2` (stereo not given): the minimum inhibitory concentration (MIC) in assay [1] came out at 125 µg/mL (≈ 383 µM); with Aspergillus niger (MTCC 282, 24 h) it was 500 µg/mL (≈ 1530 µM); in the assay on Staphylococcus aureus, 125 µg/mL (≈ 383 µM); with Pseudomonas aeruginosa, 125 µg/mL (≈ 383 µM); against Streptococcus pyogenes it was 125 µg/mL (≈ 383 µM); against Escherichia coli, 125 µg/mL (≈ 383 µM).
In the case of `Oc1ccc2c(c1)Oc1[nH]c(=S)[nH]c(=S)c1C2c1ccccc1` (stereo not given), the minimum inhibitory concentration (MIC) turned out to be 200 µg/mL (≈ 587 µM) in assay [1]; 1000 µg/mL (≈ 2940 µM) in the assay with Aspergillus niger (MTCC 282, 24 h); 62.5 µg/mL (≈ 184 µM) with Staphylococcus aureus; 250 µg/mL (≈ 734 µM) in the assay on Pseudomonas aeruginosa; 62.5 µg/mL (≈ 184 µM) against Streptococcus pyogenes; 125 µg/mL (≈ 367 µM) with Escherichia coli.
On to `O=c1[nH]cnc2c1C(c1ccccc1)c1ccc(O)cc1O2` (stereo not given), for which the MIC in assay [1] was 62.5 µg/mL (≈ 214 µM); against Aspergillus niger (MTCC 282, 24 h) it was 1000 µg/mL (≈ 3420 µM); against Staphylococcus aureus it was 500 µg/mL (≈ 1710 µM); against Pseudomonas aeruginosa, 250 µg/mL (≈ 855 µM); with Streptococcus pyogenes, 500 µg/mL (≈ 1710 µM); with Escherichia coli it was 62.5 µg/mL (≈ 214 µM).
Consider `Nc1nc(=S)[nH]c2c1C(c1ccccc1)c1ccc3cccnc3c1O2` (stereo not given), for which the minimum inhibitory concentration (MIC) in assay [1] is 500 µg/mL (≈ 1390 µM); with Aspergillus niger (MTCC 282, 24 h), 500 µg/mL (≈ 1390 µM); with Staphylococcus aureus, 125 µg/mL (≈ 349 µM); against Pseudomonas aeruginosa, 62.5 µg/mL (≈ 174 µM); in the assay on Streptococcus pyogenes, 250 µg/mL (≈ 697 µM); with Escherichia coli, 62.5 µg/mL (≈ 174 µM).

As usually defined, the MIC is the lowest concentration found to suppress growth. Read a high MIC as weaker potency.
